Measurements as given in ChEMBL document CHEMBL1145159 (J Med Chem, 2005).
Peptide text beside a SMILES is read from it.

Columns and labels:
[1] = Inhibitory concentration against Nicotinic acetylcholine receptor alpha-6-alpha-3-beta-2; Range is 0.7-1 nM; design: species or system Homo sapiens
[2] = Inhibitory concentration against Nicotinic acetylcholine receptor alpha6-beta4; Range is 0.7-1 nM; design: species or system Homo sapiens
[3] = molecular target: T1, Neuronal acetylcholine receptor; alpha3/beta4 (Homo sapiens, UniProt P30926+P32297); test: Inhibitory concentration against Nicotinic acetylcholine receptor alpha3-beta4; Range is 100-200 nM; assay type: protein-complex assay
[4] = molecular target: Neuronal acetylcholine receptor subunit alpha-9 (Homo sapiens, UniProt Q9UGM1); test: Inhibitory concentration against Nicotinic acetylcholine receptor alpha9; Range is 100-200 nM
[5] = molecular target: T2, Neuronal acetylcholine receptor subunit alpha-7 (Homo sapiens, UniProt P36544); test: Inhibitory concentration against Nicotinic acetylcholine receptor alpha7; Range is 100-200 nM
[6] = molecular target: T3, Neuronal acetylcholine receptor; alpha2/beta4 (Homo sapiens, UniProt P30926+Q15822); test: Inhibitory concentration against Nicotinic acetylcholine receptor alpha2-beta4; Range is 0.3-1.5 nM; assay type: protein-complex assay
[7] = molecular target: T4, Neuronal acetylcholine receptor; alpha3/beta2 (Homo sapiens, UniProt P17787+P32297); test: Inhibitory concentration against Nicotinic acetylcholine receptor alpha3-beta2; Range is 0.3-1.5 nM; assay type: protein-complex assay
[8] = molecular target: T5, Neuronal acetylcholine receptor; alpha4/beta2 (Homo sapiens, UniProt P17787+P43681); test: Inhibitory concentration against Nicotinic acetylcholine receptor alpha4-beta2; Range is 0.3-1.5 nM; assay type: protein-complex assay
[9] = molecular target: T6, Neuronal acetylcholine receptor; alpha4/beta4 (Homo sapiens, UniProt P30926+P43681); test: Inhibitory concentration against Nicotinic acetylcholine receptor alpha4-beta4; Range is 0.3-1.5 nM; assay type: protein-complex assay
[10] = molecular target: T2, Neuronal acetylcholine receptor subunit alpha-7; test: Inhibitory concentration against Nicotinic acetylcholine receptor alpha7; Range is 0.3-1.5 nM
[11] = molecular target: Neuronal acetylcholine receptor; alpha2/beta2 (Homo sapiens, UniProt P17787+Q15822); test: Inhibitory concentration against Nicotinic acetylcholine receptor alpha2-beta2; Range is 0.3-1.5 nM; assay type: protein-complex assay
[12] = Effective concentration against Nicotinic acetylcholine receptor alpha3-beta4 expressed in xenopus oocytes; assay type: cell-based; details: oocyte
[13] = molecular target: T1, Neuronal acetylcholine receptor; alpha3/beta4; test: Maximal response against Nicotinic acetylcholine receptor alpha3-beta4 in [Ca2+] permeability and [Ca2+] modulation; assay type: protein-complex assay
[14] = molecular target: T2, Neuronal acetylcholine receptor subunit alpha-7; test: Effective concentration against Nicotinic acetylcholine receptor alpha 7 expressed in xenopus oocytes; assay type: cell-based, Xenopus laevis, Oocyte
[15] = Effective concentration against Nicotinic acetylcholine receptor alpha4-beta4 expressed in xenopus oocytes; assay type: cell-based; details: oocyte
[16] = molecular target: T6, Neuronal acetylcholine receptor; alpha4/beta4; test: Maximal response against Nicotinic acetylcholine receptor alpha4-beta4; assay type: protein-complex assay
[17] = molecular target: T4, Neuronal acetylcholine receptor; alpha3/beta2; test: Maximal response against Nicotinic acetylcholine receptor alpha3-beta2 in [Ca2+] permeability and [Ca2+] modulation; assay type: functional
[18] = molecular target: T4, Neuronal acetylcholine receptor; alpha3/beta2; test: Maximal response against Nicotinic acetylcholine receptor alpha3-beta2; assay type: protein-complex assay
[19] = Effective concentration against Nicotinic acetylcholine receptor alpha2-beta4 expressed in xenopus oocytes; assay type: cell-based; details: oocyte
[20] = molecular target: T4, Neuronal acetylcholine receptor; alpha3/beta2; test: Effective concentration against Nicotinic acetylcholine receptor alpha3-beta2 expressed in xenopus oocytes; assay type: cell-based, Oocyte
[21] = molecular target: T1, Neuronal acetylcholine receptor; alpha3/beta4; test: Maximal response against Nicotinic acetylcholine receptor alpha3-beta4; assay type: protein-complex assay
[22] = Effective concentration against Nicotinic acetylcholine receptor alpha4-beta2 expressed in xenopus oocytes; assay type: cell-based; details: oocyte
[23] = molecular target: Neuronal acetylcholine receptor subunit alpha-7 (Rattus norvegicus) (UniProt Q05941); test: Maximal response against Nicotinic acetylcholine receptor alpha 7
[24] = molecular target: T5, Neuronal acetylcholine receptor; alpha4/beta2; test: Maximal response against Nicotinic acetylcholine receptor alpha4-beta2; assay type: protein-complex assay
[25] = molecular target: T3, Neuronal acetylcholine receptor; alpha2/beta4; test: Maximal response against Nicotinic acetylcholine receptor alpha2-beta4; assay type: protein-complex assay
[26] = molecular target: T7, Neuronal acetylcholine receptor; alpha3/beta4 (Rattus norvegicus) (UniProt P04757+P12392); test: Maximal response against rat neural Nicotinic acetylcholine receptor alpha3-beta4; assay type: protein-complex assay
[27] = molecular target: Neuronal acetylcholine receptor subunit alpha-7 (Rattus norvegicus) (UniProt Q05941); test: Maximal response against rat neural Nicotinic acetylcholine receptor alpha 7
[28] = molecular target: T8, Neuronal acetylcholine receptor; alpha4/beta2 (Rattus norvegicus) (UniProt P09483+P12390); test: Maximal response against rat neural Nicotinic acetylcholine receptor alpha4-beta2; assay type: protein-complex assay
[29] = molecular target: Neuronal acetylcholine receptor; alpha3/beta2 (Rattus norvegicus) (UniProt P04757+P12390); test: Maximal response against rat neural Nicotinic acetylcholine receptor alpha3-beta2; assay type: protein-complex assay
[30] = molecular target: T1, Neuronal acetylcholine receptor; alpha3/beta4; test: Effective concentration against Nicotinic acetylcholine receptor alpha3-beta4; assay type: protein-complex assay
[31] = molecular target: Neuronal acetylcholine receptor; alpha2/beta4 (Rattus norvegicus) (UniProt P12389+P12392); test: Maximal response against Nicotinic acetylcholine receptor alpha2-beta4 in rat mid brain slices
[32] = molecular target: Neuronal acetylcholine receptor; alpha4/beta4 (Rattus norvegicus) (UniProt P09483+P12392); test: Maximal response against Nicotinic acetylcholine receptor alpha4-beta4 in rat mid brain slices
[33] = molecular target: Neuronal acetylcholine receptor subunit alpha-7 (Rattus norvegicus, UniProt Q05941); test: Effective concentration against Nicotinic acetylcholine receptor alpha 7 in rat mid brain slices
[34] = molecular target: T8, Neuronal acetylcholine receptor; alpha4/beta2 (Rattus norvegicus); test: Maximal response against Nicotinic acetylcholine receptor alpha4-beta2 in rat mid brain slices
[35] = molecular target: T7, Neuronal acetylcholine receptor; alpha3/beta4 (Rattus norvegicus); test: Maximal response against Nicotinic acetylcholine receptor alpha3-beta4 in rat mid brain slices
[36] = molecular target: T2, Neuronal acetylcholine receptor subunit alpha-7; test: Effective concentration against Nicotinic acetylcholine receptor alpha 7
[37] = molecular target: T6, Neuronal acetylcholine receptor; alpha4/beta4; test: Effective concentration against Nicotinic acetylcholine receptor alpha4-beta4; assay type: protein-complex assay
[38] = molecular target: Neuronal acetylcholine receptor; alpha3/beta2 (Rattus norvegicus, UniProt P04757+P12390); test: Effective concentration against Nicotinic acetylcholine receptor alpha3-beta2 in rat mid brain slices

T2 sequence (P36544 whole entry): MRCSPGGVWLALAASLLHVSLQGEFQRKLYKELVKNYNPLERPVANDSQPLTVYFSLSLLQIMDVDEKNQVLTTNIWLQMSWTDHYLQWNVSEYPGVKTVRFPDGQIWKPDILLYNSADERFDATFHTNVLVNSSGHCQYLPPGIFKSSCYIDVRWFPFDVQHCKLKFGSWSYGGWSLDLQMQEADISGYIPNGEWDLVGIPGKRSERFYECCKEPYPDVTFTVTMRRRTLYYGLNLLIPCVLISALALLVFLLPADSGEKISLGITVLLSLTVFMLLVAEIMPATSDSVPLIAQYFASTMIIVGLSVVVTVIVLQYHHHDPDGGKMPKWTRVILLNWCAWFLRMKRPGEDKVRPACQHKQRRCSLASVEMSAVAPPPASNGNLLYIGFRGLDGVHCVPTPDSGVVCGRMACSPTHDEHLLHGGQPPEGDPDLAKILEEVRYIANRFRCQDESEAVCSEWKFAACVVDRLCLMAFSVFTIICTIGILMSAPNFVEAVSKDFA
Sequence of Neuronal acetylcholine receptor subunit alpha-7 (Rattus norvegicus) (Q05941 whole entry): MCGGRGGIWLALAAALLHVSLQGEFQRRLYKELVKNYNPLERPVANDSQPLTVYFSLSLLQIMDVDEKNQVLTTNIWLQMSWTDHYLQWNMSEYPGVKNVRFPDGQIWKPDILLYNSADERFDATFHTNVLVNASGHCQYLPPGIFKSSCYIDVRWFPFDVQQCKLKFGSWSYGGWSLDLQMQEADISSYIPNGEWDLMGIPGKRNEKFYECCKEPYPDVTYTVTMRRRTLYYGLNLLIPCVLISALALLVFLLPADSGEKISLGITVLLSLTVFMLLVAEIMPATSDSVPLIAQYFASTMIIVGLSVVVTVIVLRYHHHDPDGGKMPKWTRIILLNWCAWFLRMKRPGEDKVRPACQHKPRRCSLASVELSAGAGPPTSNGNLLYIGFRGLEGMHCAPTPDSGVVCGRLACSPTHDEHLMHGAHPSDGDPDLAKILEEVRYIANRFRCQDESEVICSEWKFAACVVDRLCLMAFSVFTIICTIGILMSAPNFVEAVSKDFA
T1 sequence (P30926 whole entry): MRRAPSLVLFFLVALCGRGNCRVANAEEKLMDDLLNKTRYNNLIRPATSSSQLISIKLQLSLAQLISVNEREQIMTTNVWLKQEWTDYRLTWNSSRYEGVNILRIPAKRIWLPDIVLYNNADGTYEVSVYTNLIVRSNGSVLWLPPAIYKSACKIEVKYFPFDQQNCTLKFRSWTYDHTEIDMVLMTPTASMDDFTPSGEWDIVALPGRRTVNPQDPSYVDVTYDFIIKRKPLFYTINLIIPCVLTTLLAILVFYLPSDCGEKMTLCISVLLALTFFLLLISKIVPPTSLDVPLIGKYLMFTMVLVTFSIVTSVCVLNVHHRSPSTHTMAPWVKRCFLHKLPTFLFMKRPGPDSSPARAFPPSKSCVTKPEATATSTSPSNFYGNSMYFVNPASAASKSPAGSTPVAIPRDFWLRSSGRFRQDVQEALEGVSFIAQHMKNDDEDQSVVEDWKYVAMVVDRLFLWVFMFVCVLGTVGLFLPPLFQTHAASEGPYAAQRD
T1 sequence (P32297 whole entry): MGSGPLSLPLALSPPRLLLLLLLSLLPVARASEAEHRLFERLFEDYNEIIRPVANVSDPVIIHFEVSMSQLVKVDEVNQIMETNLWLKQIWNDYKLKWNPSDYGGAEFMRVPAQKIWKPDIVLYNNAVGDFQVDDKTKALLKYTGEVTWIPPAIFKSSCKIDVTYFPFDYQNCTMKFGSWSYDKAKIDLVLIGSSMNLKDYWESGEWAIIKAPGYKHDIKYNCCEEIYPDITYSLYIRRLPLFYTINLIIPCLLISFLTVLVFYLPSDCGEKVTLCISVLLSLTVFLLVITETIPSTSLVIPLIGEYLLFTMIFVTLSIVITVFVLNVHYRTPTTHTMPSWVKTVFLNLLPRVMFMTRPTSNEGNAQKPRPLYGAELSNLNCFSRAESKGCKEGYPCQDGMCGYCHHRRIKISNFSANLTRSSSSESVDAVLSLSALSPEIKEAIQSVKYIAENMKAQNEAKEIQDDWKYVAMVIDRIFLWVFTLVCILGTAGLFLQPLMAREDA
T6 sequence (P30926 whole entry): as the sequence (P30926 whole entry) above
T6 sequence (P43681 whole entry): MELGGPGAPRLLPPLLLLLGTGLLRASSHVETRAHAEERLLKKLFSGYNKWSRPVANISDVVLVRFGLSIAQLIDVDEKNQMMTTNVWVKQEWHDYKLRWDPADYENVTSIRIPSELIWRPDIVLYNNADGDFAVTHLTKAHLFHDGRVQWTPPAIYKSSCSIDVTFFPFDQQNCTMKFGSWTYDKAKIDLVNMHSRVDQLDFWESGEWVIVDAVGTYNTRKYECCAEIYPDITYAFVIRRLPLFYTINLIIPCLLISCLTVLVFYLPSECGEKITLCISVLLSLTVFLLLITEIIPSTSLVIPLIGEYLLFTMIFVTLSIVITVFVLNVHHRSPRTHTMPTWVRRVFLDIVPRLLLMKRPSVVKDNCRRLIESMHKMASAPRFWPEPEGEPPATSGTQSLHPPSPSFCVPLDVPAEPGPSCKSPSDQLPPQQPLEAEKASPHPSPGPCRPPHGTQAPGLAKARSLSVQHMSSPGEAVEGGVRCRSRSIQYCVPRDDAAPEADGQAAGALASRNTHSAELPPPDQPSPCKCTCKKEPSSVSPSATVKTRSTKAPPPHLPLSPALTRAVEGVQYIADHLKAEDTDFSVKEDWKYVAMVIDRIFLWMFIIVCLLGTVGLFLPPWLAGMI
T5 sequence (P17787 whole entry): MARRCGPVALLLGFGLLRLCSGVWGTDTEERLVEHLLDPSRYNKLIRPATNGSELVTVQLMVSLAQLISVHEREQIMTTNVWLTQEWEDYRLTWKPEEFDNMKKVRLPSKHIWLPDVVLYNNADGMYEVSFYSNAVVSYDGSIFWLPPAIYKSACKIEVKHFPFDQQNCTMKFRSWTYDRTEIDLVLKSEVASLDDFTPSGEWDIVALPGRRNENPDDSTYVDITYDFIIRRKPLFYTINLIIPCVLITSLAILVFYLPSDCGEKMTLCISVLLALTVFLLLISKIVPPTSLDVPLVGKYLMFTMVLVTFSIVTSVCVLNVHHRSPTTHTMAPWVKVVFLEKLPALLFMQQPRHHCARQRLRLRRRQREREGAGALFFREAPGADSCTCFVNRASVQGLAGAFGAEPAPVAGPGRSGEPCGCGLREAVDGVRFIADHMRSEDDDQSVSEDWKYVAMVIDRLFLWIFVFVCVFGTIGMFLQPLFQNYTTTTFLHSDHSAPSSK
T5 sequence (P43681 whole entry): as the sequence (P43681 whole entry) above
T4 sequence (P17787 whole entry): as the sequence (P17787 whole entry) above
T4 sequence (P32297 whole entry): as the sequence (P32297 whole entry) above
Sequence of Neuronal acetylcholine receptor subunit alpha-9 (Q9UGM1 whole entry): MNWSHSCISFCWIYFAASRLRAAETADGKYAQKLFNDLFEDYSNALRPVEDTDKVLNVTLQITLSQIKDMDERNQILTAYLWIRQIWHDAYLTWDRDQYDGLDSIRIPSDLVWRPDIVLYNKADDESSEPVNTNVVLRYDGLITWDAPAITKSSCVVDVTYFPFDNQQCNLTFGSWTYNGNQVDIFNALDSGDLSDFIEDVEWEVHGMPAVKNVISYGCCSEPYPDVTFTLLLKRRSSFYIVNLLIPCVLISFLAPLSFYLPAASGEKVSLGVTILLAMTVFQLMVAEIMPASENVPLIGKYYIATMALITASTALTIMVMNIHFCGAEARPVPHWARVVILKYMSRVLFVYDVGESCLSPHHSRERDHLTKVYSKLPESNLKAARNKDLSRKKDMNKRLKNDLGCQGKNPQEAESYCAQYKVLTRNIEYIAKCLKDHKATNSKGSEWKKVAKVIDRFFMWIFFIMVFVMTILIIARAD
Sequence of Neuronal acetylcholine receptor subunit alpha-7 (Rattus norvegicus, UniProt Q05941) (Q05941 whole entry): as the sequence (Q05941 whole entry) above
T3 sequence (P30926 whole entry): as the sequence (P30926 whole entry) above
T3 sequence (Q15822 whole entry): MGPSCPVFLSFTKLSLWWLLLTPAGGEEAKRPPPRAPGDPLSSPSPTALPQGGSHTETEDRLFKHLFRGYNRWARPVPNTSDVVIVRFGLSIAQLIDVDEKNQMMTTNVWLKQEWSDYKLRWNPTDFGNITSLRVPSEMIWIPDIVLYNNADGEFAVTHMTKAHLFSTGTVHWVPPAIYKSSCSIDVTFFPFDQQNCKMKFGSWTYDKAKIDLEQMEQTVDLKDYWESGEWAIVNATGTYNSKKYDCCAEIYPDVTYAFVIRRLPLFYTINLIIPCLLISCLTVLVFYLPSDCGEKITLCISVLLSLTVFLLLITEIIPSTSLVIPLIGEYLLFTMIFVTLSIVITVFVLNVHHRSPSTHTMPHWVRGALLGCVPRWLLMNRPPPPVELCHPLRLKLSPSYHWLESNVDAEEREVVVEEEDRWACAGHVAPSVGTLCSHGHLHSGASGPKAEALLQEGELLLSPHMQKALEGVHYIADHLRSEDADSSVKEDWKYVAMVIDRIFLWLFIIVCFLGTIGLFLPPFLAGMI
Sequence of Neuronal acetylcholine receptor; alpha2/beta2 (P17787 whole entry): as the sequence (P17787 whole entry) above
Sequence of Neuronal acetylcholine receptor; alpha2/beta2 (Q15822 whole entry): as the sequence (Q15822 whole entry) above

**Q.** What does the source list for `CC[C@H](C)[C@H](NC(=O)[C@H](CCC(N)=O)NC(=O)[C@@H]1CCCN1C(=O)[C@H](CC(N)=O)NC(=O)[C@H](Cc1c[nH]cn1)NC(=O)[C@@H](NC(=O)[C@@H](NC(=O)[C@H](CS)NC(=O)[C@@H](NC(=O)[C@@H]1CCCN1C(=O)[C@H](CC(N)=O)NC(=O)[C@H](CO)NC(=O)[C@H](CS)NC(=O)[C@H](CS)NC(=O)[C@@H]1CCCN1C(=O)[C@@H](N)CC(=O)O)C(C)C)[C@@H](C)O)C(C)C)C(=O)N[C@@H](CS)C(N)=O` (H-DPCCSNPVCTVHNPQIC-NH2)?
**A.** IC50 [1]: 1 nM; IC50 [2]: 1 nM

**Q.** Which IC50 [3] does the source give for `C[C@H](NC(=O)[C@H](CS)NC(=O)[C@H](CCCN=C(N)N)NC(=O)[C@@H]1CCCN1C(=O)[C@H](CC(=O)O)NC(=O)[C@H](CO)NC(=O)[C@H](CS)NC(=O)[C@H](CS)NC(=O)CN)C(=O)N[C@@H](Cc1c[nH]c2ccccc12)C(=O)N[C@@H](CCCN=C(N)N)C(N)=O` (H-GCCSDPRCAWR-NH2) here?
**A.** 200 nM

**Q.** What about the IC50 [4] of the same compound?
**A.** 200 nM

**Q.** What about the IC50 [5] of the same compound?
**A.** 200 nM

**Q.** For `C[C@H](NC(=O)[C@H](Cc1ccccc1)NC(=O)[C@H](CS)NC(=O)[C@@H]1CCCN1C(=O)[C@@H]1CCCN1C(=O)[C@H](Cc1ccc(O)cc1)NC(=O)[C@H](CO)NC(=O)[C@H](CS)NC(=O)[C@H](CS)NC(=O)CN)C(=O)N[C@H](C(=O)N[C@@H](CC(N)=O)C(=O)N1CCC[C@H]1C(=O)N[C@@H](CC(=O)O)C(=O)N[C@H](C=O)CS)[C@@H](C)O`, which IC50 [6] is on record?
**A.** 0.75 nM

**Q.** What about the IC50 [7] of the same compound?
**A.** 0.75 nM

**Q.** And the IC50 [8]?
**A.** 0.75 nM

**Q.** And the IC50 [9]?
**A.** 0.75 nM

**Q.** What about the IC50 [10] of the same compound?
**A.** 0.75 nM

**Q.** And the IC50 [11]?
**A.** 0.75 nM

**Q.** Which EC50 [12] does the source give for `C[N+]1(C)CCN(c2ccccc2)CC1` [DIMETHYLPHENYLPIPERAZINIUM] here?
**A.** 19000 nM

**Q.** What about the Rmax [13] of the same compound?
**A.** 107%

**Q.** What about the EC50 [14] of the same compound?
**A.** 31000 nM

**Q.** What about the EC50 [15] of the same compound?
**A.** 46000 nM

**Q.** What about the Rmax [16] of the same compound?
**A.** 19%

**Q.** What about the Rmax [17] of the same compound?
**A.** 100%

**Q.** And the Rmax [18]?
**A.** 124%

**Q.** What about the EC50 [19] of the same compound?
**A.** 23000 nM

**Q.** What about the EC50 [20] of the same compound?
**A.** 56000 nM

**Q.** What about the Rmax [21] of the same compound?
**A.** 101%

**Q.** What about the EC50 [22] of the same compound?
**A.** 18000 nM

**Q.** What about the Rmax [23] of the same compound?
**A.** 54%

**Q.** What about the Rmax [24] of the same compound?
**A.** 90%

**Q.** And the Rmax [25]?
**A.** 58%

**Q.** Which Rmax [26] does the source give for `Cc1cc([C@@H]2CCN2C)on1` here?
**A.** 50%

**Q.** What about the Rmax [27] of the same compound?
**A.** 50%

**Q.** What about the Rmax [28] of the same compound?
**A.** 55%

**Q.** And the Rmax [29]?
**A.** 119%

**Q.** With `CN[C@@H](C)C/C=C/c1cncc(OC(C)C)c1` [ISPRONICLINE] as the compound, how does the EC50 [30] read?
**A.** > 10000 nM

**Q.** What about the Rmax [31] of the same compound?
**A.** 56%

**Q.** What about the Rmax [32] of the same compound?
**A.** 42%

**Q.** What about the EC50 [33] of the same compound?
**A.** > 100000 nM

**Q.** What about the Rmax [34] of the same compound?
**A.** 33%

**Q.** And the Rmax [35]?
**A.** 24%

**Q.** And the EC50 [36]?
**A.** > 10000 nM

**Q.** What about the EC50 [37] of the same compound?
**A.** > 10000 nM

**Q.** And the Rmax [24]?
**A.** 60%

**Q.** What about the EC50 [38] of the same compound?
**A.** > 100000 nM
